Measurements taken from patent US20180021456A1, “SELF-ASSEMBLED TARGETED INCLUSION COMPLEXES FOR DRUG DELIVERY” (UNIVERSITY OF SOUTH FLORIDA, priority 2015, published 2018).

What was measured:
[1] = test system: extracellular signal-regulated kinases 1 and 2 (ERK1 and ERK2); assay: Rapid phosphorylation of ERK1 and ERK2 (MAPK) after treatment; type: cell-based; settings: treatment at 1 μM
Excerpt: Western Blot: In all cases, unless otherwise indicated, the western blots were visualized by Bio-Rad digital imaging system and analyzed by Quantity One 1-D analyzing software.

MCF-7 cells = assay: Competition assay of estrone and tamoxifen with CDE1-Ada-DOX uptake in MCF-7 cells (flow cytometry); type: cell-based, human; settings: CDE1-Ada-DOX 2 μM
Experimental: FIG. 17 is a bar graph of the fluorescence intensity for competition assay of CDE1-Ada-DOX at 2 μM in MCF-7 cells in the presence of estrone and tamoxifen at 0.1-10 μM. The results are represented as means±SD from triplicate determinations.
Flow cytometer: In all cases, unless otherwise indicated, the flow cytometric analysis was performed on a FACS (Becton Dickinson Immunocytometry Systems, San Jose, Calif.) by counting 10,000 events.
Moreover, the competition assay of estrone and tamoxifen with CDE1-Ada-DOX in MCF-7 cells was conducted and is shown in FIG. 17. […] Moreover, the ER antagonist-tamoxifen, which is the most prescribed medicine to treat hormone receptor-positive breast cancer, is capable of binding to the estrogen receptor but blocks its activity. […] While for both estrone and tamoxifen, inhibition saturated at concentrations higher than 5 μM. […] Addition of an Ada-DOX guest led to the decomplexation of the estrogen moiety. […] The results are consistent and replicable with the TEM/SEM observations.

Compound | time of maximum MAPK phosphorylation [1] [min] | inhibition at 5 µM (MCF-7 cells; Homo sapiens, MCF7, competitor at 5 μM) [%] | inhibition of CDE1-Ada-DOX uptake (MCF-7 cells; competitor at 1 μM and above (p<0.001))
C[C@]12CC[C@@H]3c4ccc(O)cc4CC[C@H]3[C@@H]1CC[C@@H]2O [E2, 17β-estradiol] | 10 | – | –
CC/C(=C(\c1ccccc1)c1ccc(OCCN(C)C)cc1)c1ccccc1 [tamoxifen] | – | 80 | significantly inhibited
